Values of other authors as cited in patent publication US6495521B2, “Combination therapy method for treating chronic hepatitis B” (SciClone Pharmaceuticals, Inc., priority 1993, dated 2002).

Tests used:
[1] = individuals suffering from chronic active hepatitis B
hepatitis B virus = settings: patients with chronic active hepatitis B who received the peptide

Ac-Ser-Asp-Ala-Ala-Val-Asp-Thr-Ser-Ser-Glu- Ile-Thr-Thr-Lys-Asp-Leu-Lys-Glu-Lys-Lys-Glu- Val-Val-Glu-Glu-Ala-Glu-Asn-OH (Ac-SDAAVDTSSEITTKDLKEKKEVVEEAEN-OH) [thymosin alpha-1, 28 amino acid peptide originally isolated from calf thymus thymosin fraction 5]
lymphocyte counts [1]: increases in lymphocyte counts
production of gamma-interferon [1]: enhance production of gamma-interferon
patients who cleared hepatitis B virus DNA from serum and persistently tested negative for serum HBV DNA after treatment was terminated (hepatitis B virus): 75%
